{
  "source": "patent US10653173B2",
  "about": "“Method for masking unpleasant taste” (Analyticon Discovery GmbH, priority 2015, dated 2020)",
  "key": {"[1]": {"conditions": "cited from earlier work"}, "[2]": {"experiment": "Sensory panel: taste of combination with saccharin", "assay_type": "in vivo, human", "conditions": "10 μM with 80 ppm saccharin, pH neutral", "protocol": "The sensory evaluation of the samples was performed by a team of five experienced assessors. The results may be taken from the following Table 3: [table]"}, "[3]": {"experiment": "Sensory panel: taste modulation of green tea", "assay_type": "in vivo, human", "conditions": "vs 0.5% ethanol in tea", "protocol": "The sensory evaluation of the samples was performed by a team of five experienced assessors. Details may be taken from the following Table 6: [table]"}, "[4]": {"system": "human bitter receptor cells", "experiment": "In-vitro assay: intracellular calcium mobilisation (Fluo-4 AM) in human bitter receptor cell line stimulated with saccharin", "assay_type": "cell-based", "conditions": "human taste cells stimulated with 1 mM saccharin, fluorometric detection, 0.1-25 μM substance; read-out: IC50 (average inhibitory concentration of the antagonist)", "protocol": "Human bitter receptor cells were established, and the activation of these cells was quantified in order to detect, by means of a cell-based test system, natural substances which reduce the bitterness of bitter principles. The change of the intracellular […] level was measured for quantitation of the activation of bitter receptor cells. In order to detect substances with inhibitory activity, a high-throughput cell-based in-vitro measurement system was established. […] The modulation of the intracellular […] level of the bitter receptor cells was quantitated by means of the […] fluorescence dye Fluo-4 AM in a microplate reader. […] The quantity of mobilised calcium may be quantitated by means of fluorescence, which increases in proportion with the concentration of calcium. […] 24 hours after seeding, the cells were dyed with 4 μM of the calcium-sensitive fluorescence dye Fluo-4 AM in HBSS (Hank's Balanced Salt Solution) buffer, and the mobilisation of calcium in living cells was measured in the microplate reader (FlexStation® […], Molecular Devices). […] The mobilisation of calcium was measured in the microplate reader at 37° C. The mobilisation of calcium was quantitated as the change of fluorescence (dF) after the addition of the substance, taking into account the basal fluorescence (F0) as dF/F0. […]"}, "[5]": {"experiment": "Sensory panel: taste modulation of a potassium chloride solution", "assay_type": "in vivo, human", "conditions": "50 μM, pH neutral, 1,500 mg KCl in 100 ml water", "protocol": "The sensory evaluation of the samples was performed by a team of five experienced assessors. Details may be taken from the following Table 9: [table]"}, "[6]": {"experiment": "Sensory panel: taste of combination with acesulfame-K", "assay_type": "in vivo, human", "conditions": "25 μM with 150 ppm acesulfame-K, pH neutral", "protocol": "The sensory evaluation of the samples was performed by a team of five experienced assessors. The results may be taken from the following Table 4: [table]"}, "[7]": {"experiment": "Sensory panel: taste modulation of grapefruit juice", "assay_type": "in vivo, human", "protocol": "The sensory evaluation of the samples was performed by a team of five experienced assessors. Details may be taken from the following Table 7: [table]"}},
  "data": [
    {"smiles": "C=C1C[C@@]23CC[C@H]4[C@@](C)(CCC[C@@]4(C)C(=O)O[C@@H]4O[C@H](CO)[C@@H](O)[C@H](O)[C@H]4O)[C@@H]2CC[C@]1(O[C@@H]1O[C@H](CO)[C@@H](O)[C@H](O)[C@H]1O[C@@H]1O[C@H](CO)[C@@H](O)[C@H](O)[C@H]1O)C3", "note": "[stevioside]", "values": [
      {"measurement": "Daily uptake considered harmless", "setting": "[1]", "value": "up to 4 mg per kilogramme of bodyweigh"}
    ]},
    {"smiles": "CC(C)c1ccc2c(c1)CC[C@H]1[C@](C)(C(=O)O)CCC[C@]21C", "note": "[dehydroabietic acid]", "values": [
      {"measurement": "Evaluation (taste with saccharin)", "setting": "[2]", "value": "Slightly bitter aftertaste"},
      {"measurement": "Evaluation (taste of green tea)", "setting": "[3]; 25 μM in Green tea", "value": "Slightly bitter taste that quickly fades"},
      {"measurement": "Evaluation (taste of green tea)", "setting": "[3]; 50 μM in Green tea", "value": "As in 25 μM, but less astringent"},
      {"measurement": "IC50", "setting": "[4]", "value": 1.7, "unit": "µM"},
      {"measurement": "Evaluation (taste of potassium chloride solution)", "setting": "[5]", "value": "Less bitter than the comparison sample"},
      {"measurement": "Evaluation (taste with acesulfame-K)", "setting": "[6]", "value": "No bitter taste present any more"},
      {"measurement": "Bitter taste of freshly squeezed grapefruit juice", "setting": "[7]", "value": "significant reduction of the bitter taste without negatively influencing the fruit aroma and the refreshing tartness"}
    ]}
  ]
}
